Reference: US7196110B2, “N-substituted tricyclic 3-aminopyrazoles as inhibitors for the treatment of cell proliferative disorders” (Janssen Phamaceutica N.V., priority 2002, dated 2007)
Read-outs that look alike come from different tables or passages of the source.

What was measured:
[1] = molecular target: T1, PDGF-receptor beta enzyme comprising the tyrosine kinase domain (Homo sapiens, UniProt P09619); assay: Inhibition of PDGF-receptor kinase activity (cell-free, PLC1 peptide, 33P Flashplate); assay type: biochemical; details: for inhibition at 10 µM: compound at 10 uM, read-out: Percent Inhibition @ 10 uM
T1 construct: from amino acid 545 to 1106 of GenBank Access NO: AAA36427
In short: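 The IC50 is the inhibitor level halving kinase activity relative to inhibitor-free wells, measured as 33P captured on a streptavidin-bound biotin-PLC1 peptide. The reaction ran 60 min at 30 °C in pH 8 Tris buffer with 1 mM DTT, 5 μM ATP and the 545–1106 kinase-domain enzyme.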

[2] = molecular target: c-Abl kinase (Abelson murine leukemia virus, UniProt P00521); assay: Inhibition of c-Abl kinase activity (cell-free, Abl peptide substrate, 33P Flashplate); assay type: biochemical; details: IC50 for the c-Abl kinase activity
Procedure: The inhibitory activity of compounds within the scope of the invention on c-Abl kinase activity was tested according to the following procedure.
• 1. 10× Kinase Buffer [500 mM Tris-HCl pH=8, 100 mM MgCl2, 1 mM Na3VO4] • 2. 10 mM DTT [final concentration 1 mM] • 3. 10 mM ATP [final concentration 5 μM] (Gibco, Cat No:18330-019, Carlsbad, Calif.) • 4. ^33P-γ-ATP [NEG-602H; 2000–3000 Ci/mmol], 2 μCuries per well at 10 μCi/μl (0.2 μl/well) • 5. Abl enzyme (New England Biolabs, Cat No. P6050L, Beverly, Mass.) at 100 Units/μl use 10 Units/well (0.1 μl/well) • 6. Enzyme Dilution Buffer [50 mM Tris-HCl pH=8.0, 0.1% BSA] • 7. Wash/Stop Buffer [PBS+100 mM EDTA] • 8. NEN Streptavidin Flashplates (New England Nuclear, Cat No. SMP-103, Boston, Mass.). • 9. Abl Peptide Substrate (Biotin-[…]-amide) at 1 mM in 50 mM Tris-HCL pH=8.0. (Use at 1.0 μM). Procedure
Reagents were first mixed according to the following regimen:
The above reaction mixture was dispensed into each well of a Flashplate at 70 μl/well. To test the effect of a compound on Abl kinase activity, the test compound either in a fixed concentration or in serially diluted concentrations in 100% DMSO was added to appropriate wells at 1 μl/well.
Enzyme Abl was diluted in enzyme dilution buffer as following:
The kinase reaction was started by adding 30 μl of diluted Abl enzyme solution to each well on the Flashplate containing hot ATP (2 μCi/well) and Abl peptide substrate (at 1 μM final conc.), except wells of column 12 rows E and F, which were used to calculate the plate background. The Flashplate was swirled to mix and was incubated at 30° C. for 60 minutes. Then, the reaction mixture was discarded and the Flashplate was washed 3 times each with 200 μL Wash/Stop Buffer. Subsequently, each well on the Flashplate was filled with 200 μl of Wash/Stop buffer. The amount of ^33P retained in each well was measured using a Packard TopCount after the plate was sealed with a transparent plate sealer.
In order to test the potency of inhibition of present compounds, an IC50 for an individual compound was measured using the above procedure. As used herein, the IC50 for c-Abl kinase activity refers to the concentration of an inhibitor at which the activity of c-Abl kinase is reduced by one-half as compared with reactions containing no inhibitor.

[3] = PDGF-R kinase activity, read-out: IC50
[4] = read-out: IC50 (μM) on PDGF-R kinase activity

c-Abl kinase, sequence (P00521 115-385): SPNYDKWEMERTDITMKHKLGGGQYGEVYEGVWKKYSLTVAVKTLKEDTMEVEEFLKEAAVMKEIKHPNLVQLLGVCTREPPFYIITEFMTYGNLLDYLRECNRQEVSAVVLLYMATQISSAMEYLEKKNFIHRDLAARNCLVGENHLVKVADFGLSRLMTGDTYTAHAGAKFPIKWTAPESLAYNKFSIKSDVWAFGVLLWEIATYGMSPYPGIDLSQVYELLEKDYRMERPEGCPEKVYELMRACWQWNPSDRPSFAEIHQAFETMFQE
T1 sequence (P09619 545-1106): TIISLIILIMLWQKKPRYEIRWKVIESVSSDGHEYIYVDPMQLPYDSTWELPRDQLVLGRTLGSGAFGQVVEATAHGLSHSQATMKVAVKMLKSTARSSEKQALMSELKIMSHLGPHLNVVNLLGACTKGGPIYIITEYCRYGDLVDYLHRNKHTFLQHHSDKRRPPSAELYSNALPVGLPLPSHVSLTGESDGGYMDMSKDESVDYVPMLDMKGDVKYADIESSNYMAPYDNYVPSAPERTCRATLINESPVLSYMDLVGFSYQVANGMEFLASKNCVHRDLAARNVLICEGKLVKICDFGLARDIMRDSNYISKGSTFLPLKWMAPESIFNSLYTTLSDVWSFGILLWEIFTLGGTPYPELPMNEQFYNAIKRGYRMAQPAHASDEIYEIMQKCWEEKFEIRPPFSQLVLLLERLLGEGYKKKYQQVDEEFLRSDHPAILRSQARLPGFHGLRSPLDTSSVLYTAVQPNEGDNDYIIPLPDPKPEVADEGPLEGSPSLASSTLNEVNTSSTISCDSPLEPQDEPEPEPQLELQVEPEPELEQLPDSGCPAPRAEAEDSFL

Compound | inhibition at 10 µM ([1]; PDGF-R kinase activity) [%] | IC50 [1, 3] [µM] | IC50 [2] [µM] | IC50 [1, 4] [µM]
COc1cc2c(cc1OCC(O)CO)Cc1c-2n[nH]c1Nc1cccnc1 (stereo not shown) [Compound 263, 3-[7-Methoxy-3-(pyridn-3-ylamino)-2,4-dihydro-indeno[1,2-c]pyrazol-6-yloxy]-propane-1,2-diol] | 103 | 0.046 | 0.512 | 
COc1cc2c(cc1OCC(O)CN1CCCC1)Cc1c-2n[nH]c1NCc1ccccc1Cl (stereo not shown) [Compound 396, 1-[3-(2-Chloro-benzylamino)-7-methoxy-2,4-dihydro-indeno[1,2-c]pyrazol-6-yloxy]-3-pyrrolidin-1-yl-propan-2-ol] | 99.5 | 0.00513 | 0.002 | 
COc1cccc(Nc2[nH]nc3c2Cc2cc(OCCCO)c(OCCCO)cc2-3)c1 [Compound 400, 3-[7-(3-Hydroxy-propoxy)-3-(3-methoxy-phenylamino)-2,4-dihydro-indeno[1,2-c]pyrazol-6-yloxy]-propan-1-ol] | 98.5 | 0.00292 | 0.005 | 
COc1cccc(Nc2[nH]nc3c2C(C(C)C)c2cc(OC)c(OC)cc2-3)c1 (stereo not shown) [Compound 541, (4-lsopropyl-6,7-dimethoxy-2,4-dihydro-indeno[1,2-c]pyrazol-3-yl)-(3-methoxy-phenyl)-amine] | 50 | 44.2 |  | 
CN(C)c1ccc2c(c1)Cc1c-2n[nH]c1Nc1ccccc1 [Compound 92, N6,N6-Dimethyl-N3-phenyl-2,4-dihydro-indeno[1,2-c]pyrazole-3,6-diamine] | 75 | 0.383 |  | 
COc1ccc(Nc2[nH]nc3c2Cc2cc(Cl)ccc2-3)cc1 [Compound 189, (6-Chloro-2,4-dihydro-indeno[1,2-c]pyrazol-3-yl)-(4-methoxy-phenyl)-amine] | 92 | 0.199 |  | 
c1cncc(Nc2[nH]nc3c2Cc2sccc2-3)c1 [Compound 402, (5,7-Dihydro-1-thia-4,5-diaza-cyclopenta[a]pentalen-6-yl)-pyridin-3-yl-amine] | 90 | 0.196 |  | 
COc1cc2c(cc1OC)-c1nn(COC(C)=O)c(Nc3cccc(F)c3)c1C2 [Compound 497, Acetic acid 3-(3-fluoro-phenylamino)-6,7-dimethoxy-4H-indeno[1,2-c]pyrazol-2-ylmethyl ester] | 97 | 0.0777 |  | 
CNC(=S)n1nc(Nc2cccc(F)c2)c2c1-c1cc(OC)c(OC)cc1C2 [Compound 581, 3-(3-Fluoro-phenylamino)-6,7-dimethoxy-4H-indeno[1,2-c]pyrazole-1-carbothioic acid methylamide] | 90.5 |  |  | 1.14
COc1cc2c(cc1OC)-c1n[nH]c(NCc3ccc(F)c(F)c3)c1C2 [Compound 275, (3,4-Difluoro-benzyl)-(6,7-dimethoxy-2,4-dihydro-indeno[1,2-c]pyrazol-3-yl)-amine] | 80.5 | 0.501 |  | 
COc1cc2c(cc1OC)-c1n[nH]c(Nc3c(F)cccc3F)c1C2 [Compound 476, (2,6-Difluoro-phenyl)-(6,7-dimethoxy-2,4-dihydro-indeno[1,2-c]pyrazol-3-yl)-amine] | 88.5 | 0.25 |  | 
COc1cc2c(cc1OC)-c1c(c(Nc3cccc(F)c3)nn1C(=O)c1ccccc1)C2 [Compound 427, [3-(3-Fluoro-phenylamino)-6,7-dimethoxy-4H-indeno[1,2-c]pyrazol-1-yl]-phenyl-methanone] | 80 | 1.15 |  | 
CCOC(=O)n1nc2c(c1Nc1cccc(F)c1)Cc1cc(OC)c(OC)cc1-2 [Compound 435, 3-(3-Fluoro-phenylamino)-6,7-dimethoxy-4H-indeno[1,2-c]pyrazole-2-carboxylic acid ethyl ester] | 67 | 1.59 |  | 
Cc1ccc2c(c1)-c1n[nH]c(Nc3cc(C(C)(C)C)cc(C(C)(C)C)c3)c1C2 [Compound 312, (3,5-Di-tert-butyl-phenyl)-(7-methyl-2,4-dihydro-indeno[1,2-c]pyrazol-3-yl)-amine] | 56.5 | 5.67 |  | 
COc1cc2c(cc1OC)-c1c(c(Nc3cccc(F)c3)nn1CC(C)=O)C2 [Compound 484, 1-[3-(3-Fluoro-phenylamino)-6,7-dimethoxy-4H-indeno[1,2-c]pyrazol-1-yl]-propan-2-one] | 87 | 0.218 |  | 
COc1cc2c(cc1OC)-c1n[nH]c(Nc3ccco3)c1C2 [Compound 78, (6,7-Dimethoxy-2,4-dihydro-indeno[1,2-c]pyrazol-3-yl)-furan-2-yl-amine] | 85 | 1.29 |  | 
COCCCOc1cc2c(cc1OC)-c1n[nH]c(Nc3cccc(OC)c3)c1C2 [Compound 244, [7-Methoxy-6-(3-methoxy-propoxy)-2,4-dihydro-indeno[1,2-c]pyrazol-3-yl]-(3-methoxy-phenyl)-amine] | 101 | 0.0002 |  | 
Fc1cccc(Nc2[nH]nc3c2Cc2c(OCCCN4CCOCC4)cccc2-3)c1 [Compound 393, (3-Fluoro-phenyl)-[5-(3-morpholin-4-yl-propoxy)-2,4-dihydro-indeno[1,2-c]pyrazol-3-yl]-amine] | 94.5 | 0.174 |  | 
COc1cc2c(cc1OC)C(C)(C)c1c-2n[nH]c1Nc1cccc(Br)c1 [Compound 485, (3-Bromo-phenyl)-(6,7-dimethoxy-4,4-dimethyl-2,4-dihydro-indeno[1,2-c]pyrazol-3-yl)-amine] | 32 | 59 |  | 
COc1cc2c(cc1OC)-c1n[nH]c(Nc3ccc(OC(F)(F)F)cc3)c1C2 [Compound 16, (6,7-Dimethoxy-2,4-dihydro-indeno[1,2-c]pyrazol-3-yl)-(4-trifluoromethoxy-phenyl)-amine] | 79 | 4 |  | 
Cc1ccccc1CNc1[nH]nc2c1Cc1cc(F)ccc1-2 [Compound 378, (6-Fluoro-2,4-dihydro-indeno[1,2-c]pyrazol-3-yl)-(2-methyl-benzyl)-amine] | 94.5 | 0.467 |  | 
Cc1ccc(Nc2[nH]nc3c2Cc2cc(Cl)ccc2-3)cc1 [Compound 198, (6-Chloro-2,4-dihydro-indeno[1,2-c]pyrazol-3-yl)-p-tolyl-amine] | 72 | 0.138 |  | 
CCC1c2cc(OC)c(OC)cc2-c2n[nH]c(NCc3c(Cl)cccc3Cl)c21 (single isomer, unassigned) [Compound 585, (2,6-Dichloro-benzyl)-(4-ethyl-6,7-dimethoxy-2,4-dihydro-indeno[1,2-c]pyrazol-3-yl)-amine] | 102 |  |  | 0.429
COc1cccc(Nc2[nH]nc3c2Cc2cc(F)ccc2-3)c1 [Compound 234, (6-Fluoro-2,4-dihydro-indeno[1,2-c]pyrazol-3-yl)-(3-methoxy-phenyl)-amine] | 101 | 0.358 |  | 
Oc1cc2c(cc1O)-c1n[nH]c(Nc3cccc(Br)c3)c1C2 [Compound 125, 3-(3-Bromo-phenylamino)-2,4-dihydro-indeno[1,2-c]pyrazole-6,7-diol] | 71 | 3.44 |  | 
CN(C)CCCOc1ccc2c(c1)Cc1c-2n[nH]c1Nc1cc(F)ccc1F [Compound 163, (2,5-Difluoro-phenyl)-[6-(3-dimethylamino-propoxy)-2,4-dihydro-indeno[1,2-c]pyrazol-3-yl]-amine] | 32 | 22.7 |  | 
COc1ccc(OC)c(Nc2[nH]nc3c2C(C)c2cc(OC)c(OC)cc2-3)c1 (stereo not shown) [Compound 258, (6,7-Dimethoxy-4-methyl-2,4-dihydro-indeno[1,2-c]pyrazol-3-yl)-(2,5-dimethoxy-phenyl)-amine] | 39 |  |  | 
COCCCOc1cc2c(cc1OC)-c1n[nH]c(Nc3cccc(F)c3)c1C2 [Compound 242, (3-Fluoro-phenyl)-[7-methoxy-6-(3-methoxy-propoxy)-2,4-dihydro-indeno[1,2-c]pyrazol-3-yl]-amine] | 104 | 0.013 |  | 
